Results reported in patent US11007503B2, “Systems and methods for a cooled nitric oxide generator” (The General Hospital Corporation, priority 2017, dated 2021).

Test system: rabbits with acute pulmonary hypertension

| Compound | RVSP at one min after breathing NO (electrically generated NO (20, 40 or 80 ppm) produced on inspiration by prototype generator, 50% O2, RVSP 30 mmHg before NO breathing, FIG. 14) [mmHg] | right ventricular systolic pressure (RVSP) after U46619 infusion (anesthetized rabbits, continuous infusion over 60 mins, RVSP increased from baseline 14±2 mmHg) |
| --- | --- | --- |
| [N]=O [NO, nitric oxide] | 24 | – |
| CCCCC[C@H](O)/C=C/[C@@H]1[C@@H](C/C=C\CCCC(=O)O)[C@H]2CO[C@@H]1C2 [U46619] | – | 28-30 mmHg |
